Assay [1] concerns the target T1, human mTOR (His-tagged mTOR (1362C)) (Homo sapiens, UniProt P42345).
T1 construct: the 1362 to 2549 amino acid portion on the C terminus side of human mTOR; His tag (N); made in house
Description: mTOR kinase activity inhibition assay. In kind it is biochemical. The settings on record: HTRF, read-out: IC50 against mTOR. In a few lines: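 Crude His-tagged mTOR (aa 1362–2549) from stable HEK293 cells, with 8 μg/ml biotinylated peptide in 50 mM HEPES pH 7.5, 20 mM MnCl2; compound diluted in 20 μM ATP solution, reaction 3 h at room temperature. Phospho-peptide detected by HTRF (anti-phospho-S6K Thr389 cryptate/streptavidin-XL665, overnight at 4°C), 665/620 nm ratio. IC50 derived from curve fit of % inhibition.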
(Time-resolved FRET reads energy transfer from a long-lived donor to a nearby acceptor.)

The test system of assay [2] is human endometrial cancer cell strain AN3CA. As to the kind of experiment: Cell growth inhibition test (MTT), AN3CA. Conditions: AN3-CA, 72 h, 3 days culture, read-out: concentration exhibiting anti-cell effect (GI50). The class given is cell-based. In a few lines:
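AN3CA, IGROV1 and HT29 seeded at 5000, 1000 and 5000 cells/well; compound added next day, 3 days at 37° C, 5% CO2. MTT 4 h, formazan in DMSO read at 540 nm. GI50 is the concentration giving 50% growth rate (T/C %, corrected for day-of-addition absorbance), interpolated between two bracketing concentrations.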

pIC50: −log10 of the molar value. Some results are limits rather than exact numbers.

Here are results for 10 compounds from patent publication US8309546B2, “Morpholinopurine derivatives” (Daiichi Sankyo Company, Limited, priority 2008, dated 2012).

T1 sequence (P42345 1362-2549): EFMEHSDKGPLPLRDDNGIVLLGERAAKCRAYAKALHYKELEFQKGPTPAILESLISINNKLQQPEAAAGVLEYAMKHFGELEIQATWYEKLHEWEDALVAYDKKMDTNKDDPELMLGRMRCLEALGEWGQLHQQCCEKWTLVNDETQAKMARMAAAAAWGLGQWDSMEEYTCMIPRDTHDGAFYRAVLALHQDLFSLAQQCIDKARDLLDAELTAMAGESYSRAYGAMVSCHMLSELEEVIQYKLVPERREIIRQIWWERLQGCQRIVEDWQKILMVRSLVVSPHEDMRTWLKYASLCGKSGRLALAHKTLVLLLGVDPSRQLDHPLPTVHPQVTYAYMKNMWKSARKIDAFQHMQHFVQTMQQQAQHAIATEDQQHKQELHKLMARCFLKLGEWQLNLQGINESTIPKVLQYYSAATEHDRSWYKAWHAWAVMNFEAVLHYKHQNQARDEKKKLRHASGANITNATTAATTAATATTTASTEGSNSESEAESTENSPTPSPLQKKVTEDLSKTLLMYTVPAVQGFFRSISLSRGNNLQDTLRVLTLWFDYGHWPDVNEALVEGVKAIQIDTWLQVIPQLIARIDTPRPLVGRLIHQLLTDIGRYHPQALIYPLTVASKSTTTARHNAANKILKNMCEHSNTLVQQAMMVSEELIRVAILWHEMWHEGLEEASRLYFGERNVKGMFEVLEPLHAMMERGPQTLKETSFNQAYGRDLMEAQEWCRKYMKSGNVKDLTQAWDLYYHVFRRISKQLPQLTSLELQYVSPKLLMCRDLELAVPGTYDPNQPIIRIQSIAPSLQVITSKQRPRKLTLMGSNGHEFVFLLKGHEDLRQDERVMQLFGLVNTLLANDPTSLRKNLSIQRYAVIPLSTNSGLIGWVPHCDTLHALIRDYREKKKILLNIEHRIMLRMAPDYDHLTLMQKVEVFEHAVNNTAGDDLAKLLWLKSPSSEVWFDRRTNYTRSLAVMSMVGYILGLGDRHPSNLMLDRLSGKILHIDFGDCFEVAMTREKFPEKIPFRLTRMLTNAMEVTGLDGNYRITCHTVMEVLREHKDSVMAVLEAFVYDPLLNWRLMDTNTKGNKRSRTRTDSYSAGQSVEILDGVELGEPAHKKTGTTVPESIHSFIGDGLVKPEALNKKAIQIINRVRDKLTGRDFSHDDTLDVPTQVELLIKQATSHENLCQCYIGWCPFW

The pIC50 is −log10 of the IC50, conventionally taken in molar units. `CC[C@H]1CN(c2nc3c(N4CCOCC4)nc(-c4cnc(N)nc4)nc3n2CC(F)(F)F)CCN1S(C)(=O)=O` [Example 76, 5-{8-[(3S)-3-Ethyl-4-(methylsulfonyl)piperazin-1-yl]-6-morpholin-4-yl-9-(2,2,2-trifluoroethyl)-9H-purin-2-yl}pyrimidin-2-amine]: in assay [1], the pIC50 is > 8.00. Besides, the GI50 in assay [2] is ≤ 5000 nM.
For `CC[C@H]1CN(c2nc3c(N4CCOCC4)nc(-c4cnc(N)nc4)nc3n2CC(F)(F)F)CCN1C(=O)[C@H](C)O` [Example 77, (2S)-1-{(2S)-4-[2-(2-Aminopyrimidin-5-yl)-6-morpholin-4-yl-9-(2,2,2-trifluoroethyl)-9H-purin-8-yl]-2-ethylpiperazin-1-yl}-1-oxopropan-2-ol] the same measures were 7.52 to 8.00 and ≤ 5000 nM.
For `CC[C@@H]1CN(c2nc3c(N4CCOCC4)nc(-c4cnc(N)nc4)nc3n2CC(F)(F)F)CCN1C(=O)[C@H](C)O` [Example 79] the same measures were > 8.00 and ≤ 5000 nM.
For `CC(C)Cn1c(N2CCN(C(=O)C[C@@H](C)O)CC2)nc2c(N3CCOCC3)nc(-c3cnc(N)nc3)nc21` [Example 81, (2R)-4-{4-[2-(2-Aminopyrimidin-5-yl)-9-isobutyl-6-morpholin-4-yl-9H-purin-8-yl]piperazin-1-yl}-4-oxobutan-2-ol], in that order: 7.52 to 8.00 and ≤ 5000 nM.
For the compound `CC(C)Cn1c(N2CCN(C(=O)C[C@H](C)O)CC2)nc2c(N3CCOCC3)nc(-c3cnc(N)nc3)nc21` [Example 82, (2S)-4-{4-[2-(2-Aminopyrimidin-5-yl)-9-isobutyl-6-morpholin-4-yl-9H-purin-8-yl]piperazin-1-yl}-4-oxobutan-2-ol], the pIC50 in assay [1] is 7.52 to 8.00. The GI50 in assay [2] was ≤ 5000 nM.
For `CC(C)Cn1c(N2CCN(C(=O)C[C@@H](C)O)[C@@H](C)C2)nc2c(N3CCOCC3)nc(-c3cnc(N)nc3)nc21` [Example 83, (2R)-4-{(2S)-4-[2-(2-Aminopyrimidin-5-yl)-9-isobutyl-6-morpholin-4-yl-9H-purin-8-yl]-2-methylpiperazin-1-yl}-4-oxobutan-2-ol] the same measures were > 8.00 and ≤ 5000 nM.
For `CC(C)Cn1c(N2CCN(C(=O)C[C@@H](C)O)[C@H](C)C2)nc2c(N3CCOCC3)nc(-c3cnc(N)nc3)nc21` [Example 84, (2R)-4-{(2R)-4-[2-(2-Aminopyrimidin-5-yl)-9-isobutyl-6-morpholin-4-yl-9H-purin-8-yl]-2-methylpiperazin-1-yl}-4-oxobutan-2-ol] the same measures were 7.52 to 8.00 and ≤ 5000 nM.
For `CC(C)Cn1c(N2CCN(C(=O)C[C@H](C)O)[C@@H](C)C2)nc2c(N3CCOCC3)nc(-c3cnc(N)nc3)nc21` [Example 85, (2S)-4-{(2S)-4-[2-(2-Aminopyrimidin-5-yl)-9-isobutyl-6-morpholin-4-yl-9H-purin-8-yl]-2-methylpiperazin-1-yl}-4-oxobutan-2-ol], in that order: > 8.00 and ≤ 5000 nM.
As to `CC(C)Cn1c(N2CCN(C(=O)C[C@H](C)O)[C@H](C)C2)nc2c(N3CCOCC3)nc(-c3cnc(N)nc3)nc21` [Example 86, (2S)-4-{(2R)-4-[2-(2-Aminopyrimidin-5-yl)-9-isobutyl-6-morpholin-4-yl-9H-purin-8-yl]-2-methylpiperazin-1-yl}-4-oxobutan-2-ol], the pIC50 in assay [1] is 7.52 to 8.00. In addition, the GI50 in assay [2] was ≤ 5000 nM.
For `CNc1ncc(-c2nc(N3CCOCC3)c3nc(N4CCN(CC(=O)N(C)C)[C@H](C)C4)n(CC(F)(F)F)c3n2)cn1` [Example 87, N,N-Dimethyl-2-[(2R)-2-methyl-4-{2-[2-(methylamino)pyrimidin-5-yl]-6-morpholin-4-yl-9-(2,2,2-trifluoroethyl)-9H-purin-8-yl}piperazin-1-yl]acetamide], in that order: 7.52 to 8.00 and ≤ 5000 nM.
